Where two headings read alike, the source gives them in different places.
Experiments:
[1] = Dynamic light scattering, colloidal aggregation; assay type: physicochemical; conditions: relevant concentrations
Protocol: Dynamic light scattering (Zetasizer Nano S, Malvern, UK) was used to determine compound colloidal aggregation potential and kinetic solubility. The particle sizes were measured at 25° C. […] Colloidal aggregation was measured through sequential dilutions. Solubility was assessed at 25 μM after 0 and 30 minutes.

[2] = mouse, in vivo, iv, 100 mg/kg
EP2 = EP2 (Homo sapiens, UniProt P43116); assay: Prostanoid EP2 receptor antagonism, functional assay; assay type: cell-based; conditions: 150 μM
HL-60 cells = assay: HL-60 cell viability with and without DMSO differentiation (Alamar Blue); assay type: cell-based; conditions: Homo sapiens, 48 hours, n=1
Protocol: Cells were fixed with […] BD fix buffer while vortexing. […] After the required incubation time, cells were washed and incubated for another hour with goat anti-rabbit Alexa fluor 488 antibody. Cells are then washed and resuspended in PBS and acquired by LSRFortessa™ flow cytometer (BD Biosciences, USA) with a 488 nm laser, a 505 nm long-pass filter and a 530/30 nm band-pass filter (for FITC detection). Data was analyzed using the FlowJo software. […] Cells were treated with varying concentration of β-lapachone for a time period of 48 hours. Cell death was analyzed using standard Alamar Blue assay. Data is represented after being normalized to the vehicle control.

5-LO = target: T1, 5-LO (Homo sapiens, UniProt P09917); assay: 5-LO product formation in intact human neutrophils; assay type: cell-based; set-up: endogenous in cells; host or cells: neutrophils isolated from peripheral blood of healthy adult volunteers; intact or sonicated homogenates
T1 sequence (P09917 1-674): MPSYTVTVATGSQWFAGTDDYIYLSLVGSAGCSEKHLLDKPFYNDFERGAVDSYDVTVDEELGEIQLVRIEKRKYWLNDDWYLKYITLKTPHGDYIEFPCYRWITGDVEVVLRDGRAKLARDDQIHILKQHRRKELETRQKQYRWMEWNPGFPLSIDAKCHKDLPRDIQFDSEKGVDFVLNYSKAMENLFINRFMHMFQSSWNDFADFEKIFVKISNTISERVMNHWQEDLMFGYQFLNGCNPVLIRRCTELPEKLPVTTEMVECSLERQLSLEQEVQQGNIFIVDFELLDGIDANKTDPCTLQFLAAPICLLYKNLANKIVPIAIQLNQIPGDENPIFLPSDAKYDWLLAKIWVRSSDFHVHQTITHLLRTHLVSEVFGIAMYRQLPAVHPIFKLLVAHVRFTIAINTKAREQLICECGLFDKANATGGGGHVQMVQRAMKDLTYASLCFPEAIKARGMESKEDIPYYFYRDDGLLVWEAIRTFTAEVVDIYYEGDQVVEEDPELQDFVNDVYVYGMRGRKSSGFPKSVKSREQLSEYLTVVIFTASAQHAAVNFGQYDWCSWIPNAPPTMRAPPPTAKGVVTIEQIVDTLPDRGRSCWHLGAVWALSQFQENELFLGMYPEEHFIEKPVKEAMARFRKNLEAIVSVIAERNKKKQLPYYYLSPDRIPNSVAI
Protocol: Peripheral blood (University Hospital Jena, Germany) was withdrawn from healthy adult volunteers with consent that had not taken any anti-inflammatory drugs during the last 10 days, by venipuncture in heparinized tubes (16 IE heparin/mL blood). The blood was centrifuged at 4000 g for 20 min at 20° C. for preparation of leukocyte concentrates. Leukocyte concentrates were then subjected to dextran sedimentation and centrifugation on lymphocyte separation medium (LSM 1077, PAA, Colbe, Germany). Contaminating erythrocytes of pelleted neutrophils were removed by hypotonic Iysis. […]
Method B. For determination of 5-LO products in intact neutrophils, the cells (5×10^6) were resuspended in 1 mL PGC buffer, preincubated for 15 min at 37° C. with β-lapachone or vehicle (0.1% DMSO), and incubated for 10 min at 37° C. with 2.5 μM Ca^2+-ionophore A23187 plus 20 μM AA. […] 5-LO products (LTB4, tr-LTB4 isomers, and 5-HETE), were analyzed by RP-HPLC and quantities calculated on the basis of the internal standard PGB1. Cysteinyl-LTs C4, D4 and E4 were not detected (amounts were below detection limit), and oxidation products of LTB4 were not determined.
Data are expressed as mean±S.E.M. IC50 values were calculated from averaged measurements at 6 different concentrations of the compound by nonlinear regression using GraphPad Prism software (San Diego, Calif.) one site binding competition. […]

Chain of EP2 (P43116 whole entry): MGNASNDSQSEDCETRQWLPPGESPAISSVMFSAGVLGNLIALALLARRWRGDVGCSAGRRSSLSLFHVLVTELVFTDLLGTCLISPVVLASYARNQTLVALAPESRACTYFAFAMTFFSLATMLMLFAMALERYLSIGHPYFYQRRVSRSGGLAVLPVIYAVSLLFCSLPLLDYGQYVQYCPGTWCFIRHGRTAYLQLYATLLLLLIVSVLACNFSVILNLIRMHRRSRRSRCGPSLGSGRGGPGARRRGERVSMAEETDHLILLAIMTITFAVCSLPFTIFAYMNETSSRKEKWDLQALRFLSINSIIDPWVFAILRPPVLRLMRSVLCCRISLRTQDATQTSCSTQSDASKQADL

SMILES: CC1(C)CCC2=C(O1)c1ccccc1C(=O)C2=O [Compound 1, 3,4-dihydro-2,2-dimethyl-2H-naphtho[1,2-b]pyran-5,6-dione]
- Colloidal aggregation [1]: no colloidal aggregation
- Toxicity at higher doses [2]: toxicity
- EP2 antagonist effect (EP2): 60%
- IC50 (HL-60 cells; DMSO-stimulated HL-60 cells overexpressing 5-LO, read-out: IC50 (differentiated), HL-60): 180 nM
- IC50 (HL-60 cells; control HL-60 cells, read-out: IC50 (control), HL-60): 390 nM
- IC50 (5-LO; 1 mM DTT, n=4, read-out: IC50, 5-LO activity in intact human neutrophils supplemented with DTT): 420 nM
- IC50 (5-LO; without DTT, A23187 plus arachidonic acid, n=3, read-out: IC50 (5-LO), intact human neutrophils): 8600 nM
